According to patent publication US20100184676A1, “USE OF A PEPTIDE AS A THERAPEUTIC AGENT” (priority 2007, published 2010):

Columns and labels:
HepG2-2.2.15 cells = experiment: Cell viability (dye uptake) in HBV assay; type: cell-based; conditions: peptide 10 micrograms per ml
Method: (§1) HepG2-2.2.15 cells were plated in 96-well microtiter plates. After 16-24 hours the confluent monolayer of HepG2-2.2.15 cells was washed and the medium was replaced with complete medium containing test peptide—10 micrograms per ml—in duplicate. Lamivudine (3TC) was used as the positive control, while media alone was added to the cells as a negative control (virus control). Three days later the culture medium was replaced with fresh medium containing the peptide. Six days following the initial administration of the peptide, the cell culture supernatants was collected, treated with pronase and DNAse and then used in a real-time quantitative TaqMan PCR assay. The PCR-amplified HBV DNA was detected in real-time by monitoring increases in fluorescence signals that result from the exonucleolytic degradation of a quenched fluorescence probe molecule that hybridizes to the amplified HBV DNA. For each PCR amplification, a standard curve was simultaneously generated using dilutions of purified HBV DNA. Antiviral activity was calculated from the reduction in HBV DNA levels (% virus control). A novel dye uptake assay was then employed to measure cell viability, which is used to calculate toxicity (% cell control).

HIV-1IIIB = experiment: HIV-1 antiviral assay (CPE reduction, MTS) in CEM-SS cells; type: cell-based; conditions: peptide 10 micrograms per ml, 6 days post-infection
HCMV strain AD169 = experiment: HCMV plaque reduction assay in MRC-5 cells; conditions: HCMV AD169 in MRC-5 cells; peptide 10 micrograms per ml; 7-10 days
MRC-5 cells = conditions: human, 6 days
Streptococcus pneumoniae = type: cell-based; conditions: 5 micrograms per ml
[1] = tested on: hepatitis B virus (HBV) ayw strain; experiment: HBV experimental assay system (secreted HBV DNA, TaqMan PCR); type: cell-based; conditions: peptide 10 micrograms per ml; six days; HBV DNA in supernatant
Method: HepG2-2.2.15 is a stable cell line containing the hepatitis B virus (HBV) ayw strain genome (ATCC Cat. No. CRL-11997). Antiviral compounds blocking any late step of viral replication such as transcription, translation, pregenome encapsidation, reverse transcription, particle assembly and release can be identified and characterized using this cell line.
as §1, with “Lamivudine (3TC) was used as the positive control, while media alone was added to the cells as a negative control (virus control).” left out, “A novel dye uptake assay was then employed to measure cell viability, which is used to calculate toxicity (% cell control).” left out

[2] = tested on: Primary Human endothelial cells (HUVEC); experiment: Endothelial cell migration assay; type: cell-based; conditions: peptide 10 micrograms per ml, 22 hours
MRSA = conditions: 5 micrograms per ml
A549 cells [3] = experiment: Apoptosis prevention assay (C2 ceramide, Annexin-5); type: cell-based, human; conditions: A549 cells pretreated 30 min, peptide 10 micrograms per ml
[4] = tested on: Human Peripheral Blood Mononuclear Cells (PBMC); experiment: B cell proliferation assay (SAC plus Interleukin-2, 3H-thymidine); type: cell-based; conditions: peptide 10 micrograms per ml, 3H-thymidine incorporation
[5] = Cell viability (dye uptake) in HBV assay; type: cell-based; conditions: human, HepG2-2.2.15 cells, peptide 10 micrograms per ml
Method: as §1

HUVEC = experiment: Endothelial tube formation assay; type: cell-based, human; conditions: peptide 10 micrograms per ml, 20 hours, average tubule length
Description: Positive control was vehicle only.

Pseudomonas aeruginosa = type: cell-based; conditions: 5 micrograms per ml
in vitro [6] = conditions: human, CEM-SS cells
RAW 264.7 cells = experiment: Phagocytosis assay (Fluorescein-labeled Escherichia coli); type: cell-based, mouse; conditions: peptide 10 micrograms per ml, flow cytometry
A549 cells [7] = experiment: Apoptosis induction assay (Annexin-5); type: cell-based, human; conditions: 24 hours
A549 cells [8] = experiment: Propidium iodide cell cycle assay; type: cell-based, human; conditions: 24 hours, peptide 10 micrograms per ml, FACS
Description: Disregulation of the cell cycle components may lead to tumor formation.

TNF alpha = TNF alpha production assay (LPS-stimulated macrophages, ELISA); type: cell-based, human; conditions: macrophages from PBMC, peptide 10 micrograms per ml, lipopolysaccharide 200 ng/ml, overnight
Description: Not stimulated macrophages served as negative background control.

in vitro [9] = conditions: human, MRC-5 cells
spleen cells = experiment: Th1/Th2 cytokine profiling assay; type: cell-based, Balb/c mice; conditions: Ovalbumin restimulation; peptide 10 micrograms per ml; 72 hours
[10] = tested on: Human Peripheral Blood Mononuclear Cells (PBMC); experiment: T cell proliferation assay (PHA, 3H-thymidine); type: cell-based; conditions: peptide 10 micrograms per ml, 3H-thymidine incorporation
CEM-SS cells = experiment: Cytotoxicity (MTS cell viability) in HIV-1 experiments; conditions: peptide 10 micrograms per ml

For `Nc1ccn([C@@H]2CS[C@H](CO)O2)c(=O)n1` [3TC, Lamivudine, reference compound], the “% Cell viability” value (HepG2-2.2.15 cells) was 95.8%.

In the case of `CC(C)(C)NC(=O)[C@@H]1CN(Cc2cccnc2)CCN1C[C@@H](O)C[C@@H](Cc1ccccc1)C(=O)N[C@H]1c2ccccc2C[C@H]1O` [Indinavir, indinavir], the “% CPE reduction in HIV-1 infected CEM-SS cells” value (“% CPE reduction” for short) (HIV-1IIIB) is reported as 100%.

With `Nc1nc(O)c2ncn(COC(CO)CO)c2n1` [Ganciclovir, reference compound] the “% plaque reduction” value (HCMV strain AD169) was 100% and the “% Cell viability” value (MRC-5 cells) was 100%.

In the case of `CC[C@H](C)[C@H](NC(=O)[C@H](CCC(N)=O)NC(=O)[C@H](Cc1c[nH]cn1)NC(=O)[C@H](C)NC(=O)[C@H](CC(C)C)NC(=O)[C@H](CCCCN)NC(=O)[C@H](CCC(N)=O)NC(=O)[C@@H](NC(=O)[C@@H](NC(=O)[C@@H]1CSSC[C@H](NC(=O)CNC(=O)[C@H](Cc2ccccc2)NC(=O)[C@H](CO)NC(=O)[C@H](CCCNC(=N)N)NC(=O)[C@H](CC(C)C)NC(=O)CNC(=O)[C@H](CCC(N)=O)NC(=O)[C@H](Cc2ccccc2)NC(=O)[C@H](CC(N)=O)NC(=O)[C@H](CC(N)=O)NC(=O)[C@H](CCSC)NC(=O)[C@H](CO)NC(=O)[C@H](CCC(N)=O)NC(=O)[C@H](CCCNC(=N)N)NC(=O)[C@@H](N)Cc2ccc(O)cc2)C(=O)N[C@@H](CCCNC(=N)N)C(=O)N[C@@H](Cc2ccccc2)C(=O)NCC(=O)N[C@@H]([C@@H](C)O)C(=O)N1)[C@@H](C)O)C(C)C)C(=O)N[C@@H](Cc1ccc(O)cc1)C(=O)N[C@@H](CCC(N)=O)C(=O)N[C@@H](Cc1ccccc1)C(=O)N[C@H](C(=O)N[C@@H](CC(=O)O)C(=O)N[C@@H](CCCCN)C(=O)N[C@@H](CC(=O)O)C(=O)N[C@@H](CCCCN)C(=O)N[C@@H](CC(=O)O)C(=O)N[C@@H](CC(N)=O)C(=O)N[C@H](C(=O)N[C@@H](C)C(=O)N1CCC[C@H]1C(=O)N[C@@H](CCCNC(=N)N)C(=O)N[C@@H](CO)C(=O)N[C@@H](CCCCN)C(=O)N[C@H](C(=O)N[C@@H](CO)C(=O)N1CCC[C@H]1C(=O)N[C@@H](CCC(N)=O)C(=O)NCC(=O)N[C@@H](Cc1ccc(O)cc1)C(N)=O)[C@@H](C)CC)C(C)C)[C@@H](C)O` [Adrenomedullin], the “% inhibition” value (Streptococcus pneumoniae) is reported as 0.0%, the “% inhibition of HBV replication in HEP G2 cells” value [1] is reported as 0.0% and the “% inhibition of migration” value [2] is reported as −34%. The “% inhibition” value (MRSA) was 0.0%, the “% plaque reduction” value (HCMV strain AD169) was 0.0% and the “% prevention of ceramide induced apoptosis” value (A549 cells [3]) was 0.0%. For the same molecule, the “% of SAC/IL2 induced control” value [4] was 111.0%, the viability at 144 h, 10 micrograms per ml [5] was 100% and the “% inhibition of tube formation” value (HUVEC) was 26%. The “% inhibition” value (Pseudomonas aeruginosa) was 0.0%, the viability at 10 micrograms per ml (in vitro [6]) was 92.9% and the “% of control phagocytosis” value (RAW 264.7 cells) was 108.8%. For the same molecule, the “% of induction” value (A549 cells [7]) was 1.5%, the “Cell cycle analysis G0/G1” value (A549 cells [8]) was 57.8 and the “Cell cycle analysis G2/M” value (A549 cells [8]) was 9.5. For the same molecule, the “Cell cycle analysis S” value (A549 cells [8]) was 32.7, the “% of LPS induction” value (TNF alpha) was 100.9% and the viability at 144 h (in vitro [9]) was 100%. For the same molecule, the “IFNγ spleen cells; TH1 response (% of control)” value (spleen cells) was 24.5 % of control, the “IL-2 spleen cells (% of control)” value (spleen cells) was 0.0 % of control and the “IL-4 spleen cells; TH2 response (% of control)” value (spleen cells) was 0.0 % of control. For the same molecule, the “IL-5 spleen cells; TH2 response (% of control)” value (spleen cells) was 28.1 % of control, the “TNF-a spleen cells; TH1 response (% of control)” value (spleen cells) was 66.7 % of control and the “% of PHA induced control” value [10] was 107.1%. The “% CPE reduction” value (HIV-1IIIB) was 0.0%.

In the case of `Cc1cn([C@H]2C[C@H](N=[N+]=[N-])[C@@H](CO)O2)c(=O)[nH]c1=O` [AZT], the “% Cell viability” value (CEM-SS cells) is reported as 97% and the “% CPE reduction” value (HIV-1IIIB) is reported as 99%.
